Data reported in PubChem BioAssay (NCI).
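Cultured in 96-well plates, cells were exposed to test compound for 48 hours across five concentrations. The concentration for 50% growth inhibition is given as GI50. TGI: concentration producing complete growth inhibition.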

Assays:
Assay in all cases: DTP human tumour cell line panel, 48 h
MDA-MB-435 = test system: MDA-MB-435
SK-MEL-5 melanoma = test system: SK-MEL-5 melanoma
SW-620 colon = test system: SW-620 colon
KM12 colon = test system: KM12 colon
T-47D breast = test system: T-47D breast
NCI-H226 lung = test system: NCI-H226 lung
LOX IMVI melanoma = test system: LOX IMVI melanoma
HOP-92 NSCLC = test system: HOP-92 NSCLC
OVCAR-8 ovarian = test system: OVCAR-8 ovarian
SNB-19 CNS = test system: SNB-19 CNS
MOLT-4 leukemia = test system: MOLT-4 leukemia
CCRF-CEM leukemia = test system: CCRF-CEM leukemia
SF-539 CNS = test system: SF-539 CNS
HOP-62 NSCLC = test system: HOP-62 NSCLC
NCI-H460 lung = test system: NCI-H460 lung
SK-MEL-28 melanoma = test system: SK-MEL-28 melanoma
OVCAR-5 ovarian = test system: OVCAR-5 ovarian
DU-145 prostate = test system: DU-145 prostate
MALME-3M melanoma = test system: MALME-3M melanoma
RPMI-8226 leukemia = test system: RPMI-8226 leukemia
SK-MEL-2 melanoma = test system: SK-MEL-2 melanoma
MCF7 breast = test system: MCF7 breast
SK-OV-3 ovarian = test system: SK-OV-3 ovarian
U251 CNS = test system: U251 CNS
NCI/ADR-RES ovarian = test system: NCI/ADR-RES ovarian
UACC-257 melanoma = test system: UACC-257 melanoma
SN12C renal = test system: SN12C renal
UO-31 renal = test system: UO-31 renal
NCI-H23 lung = test system: NCI-H23 lung
SNB-75 CNS = test system: SNB-75 CNS
NCI-H522 lung = test system: NCI-H522 lung
HCC-2998 colon = test system: HCC-2998 colon
IGROV1 ovarian = test system: IGROV1 ovarian
SF-268 CNS = test system: SF-268 CNS
UACC-62 melanoma = test system: UACC-62 melanoma
ACHN renal = test system: ACHN renal
SF-295 CNS = test system: SF-295 CNS
HT29 colon = test system: HT29 colon
HCT-15 colon = test system: HCT-15 colon
BT-549 breast = test system: BT-549 breast
A498 renal = test system: A498 renal
PC-3 prostate = test system: PC-3 prostate
786-0 renal = test system: 786-0 renal
MDA-MB-231 breast = test system: MDA-MB-231 breast
HS 578T breast = test system: HS 578T breast
RXF 393 renal = test system: RXF 393 renal
A549 NSCLC = test system: A549 NSCLC
HCT-116 colon = test system: HCT-116 colon
K-562 leukemia = test system: K-562 leukemia
HL-60(TB) leukemia = test system: HL-60(TB) leukemia
M14 melanoma = test system: M14 melanoma
EKVX NSCLC = test system: EKVX NSCLC
CAKI-1 renal = test system: CAKI-1 renal
OVCAR-3 ovarian = test system: OVCAR-3 ovarian
OVCAR-4 ovarian = test system: OVCAR-4 ovarian
TK-10 renal = test system: TK-10 renal
COLO 205 colon = test system: COLO 205 colon
SR leukemia = test system: SR leukemia
MDA-MB-468 breast = test system: MDA-MB-468 breast

Question: For O=C(COc1ccc(NC(=O)Nc2ccc(Cl)cc2)cc1)N=Nc1c(O)[nH]c2ccc([N+](=O)[O-])cc12, which GI50 (MDA-MB-435) is on record?
Answer: 3.7 µM

Question: What about the TGI (MDA-MB-435) of the same molecule?
Answer: 20.5 µM

Question: What about the GI50 (SK-MEL-5 melanoma) of the same molecule?
Answer: 12.4 µM

Question: What about the TGI (SK-MEL-5 melanoma) of the same molecule?
Answer: > 100 µM

Question: What about the GI50 (SW-620 colon) of the same molecule?
Answer: 3.34 µM

Question: And the TGI (SW-620 colon)?
Answer: > 100 µM

Question: And the GI50 (KM12 colon)?
Answer: 1.95 µM

Question: What about the TGI (KM12 colon) of the same molecule?
Answer: 11 µM

Question: What about the GI50 (T-47D breast) of the same molecule?
Answer: 4 µM

Question: And the TGI (T-47D breast)?
Answer: 30.2 µM

Question: And the GI50 (NCI-H226 lung)?
Answer: 4.12 µM

Question: And the TGI (NCI-H226 lung)?
Answer: 24.2 µM

Question: What about the GI50 (LOX IMVI melanoma) of the same molecule?
Answer: 3.21 µM

Question: What about the TGI (LOX IMVI melanoma) of the same molecule?
Answer: 11.5 µM

Question: And the GI50 (HOP-92 NSCLC)?
Answer: 3.01 µM

Question: And the TGI (HOP-92 NSCLC)?
Answer: 12.4 µM

Question: What about the GI50 (OVCAR-8 ovarian) of the same molecule?
Answer: 12.7 µM

Question: What about the TGI (OVCAR-8 ovarian) of the same molecule?
Answer: > 100 µM

Question: And the GI50 (SNB-19 CNS)?
Answer: 10.1 µM

Question: What about the TGI (SNB-19 CNS) of the same molecule?
Answer: 23.6 µM

Question: And the GI50 (MOLT-4 leukemia)?
Answer: 5.25 µM

Question: What about the TGI (MOLT-4 leukemia) of the same molecule?
Answer: > 100 µM

Question: And the GI50 (CCRF-CEM leukemia)?
Answer: 2.56 µM

Question: And the TGI (CCRF-CEM leukemia)?
Answer: 8.18 µM

Question: And the GI50 (SF-539 CNS)?
Answer: 3.36 µM

Question: What about the TGI (SF-539 CNS) of the same molecule?
Answer: 15.3 µM

Question: What about the GI50 (HOP-62 NSCLC) of the same molecule?
Answer: 14.3 µM

Question: What about the TGI (HOP-62 NSCLC) of the same molecule?
Answer: 30.6 µM

Question: And the GI50 (NCI-H460 lung)?
Answer: 3.07 µM

Question: And the TGI (NCI-H460 lung)?
Answer: 33.9 µM

Question: What about the GI50 (SK-MEL-28 melanoma) of the same molecule?
Answer: 2.49 µM

Question: What about the TGI (SK-MEL-28 melanoma) of the same molecule?
Answer: 7.97 µM

Question: What about the GI50 (OVCAR-5 ovarian) of the same molecule?
Answer: 24 µM

Question: What about the TGI (OVCAR-5 ovarian) of the same molecule?
Answer: > 100 µM

Question: And the GI50 (DU-145 prostate)?
Answer: 10.3 µM

Question: And the TGI (DU-145 prostate)?
Answer: > 100 µM

Question: What about the GI50 (MALME-3M melanoma) of the same molecule?
Answer: 2.6 µM

Question: And the TGI (MALME-3M melanoma)?
Answer: 8.74 µM

Question: And the GI50 (RPMI-8226 leukemia)?
Answer: 7.3 µM

Question: And the TGI (RPMI-8226 leukemia)?
Answer: > 100 µM

Question: And the GI50 (SK-MEL-2 melanoma)?
Answer: 7.09 µM

Question: And the TGI (SK-MEL-2 melanoma)?
Answer: 20.3 µM

Question: And the GI50 (MCF7 breast)?
Answer: 2.06 µM

Question: What about the TGI (MCF7 breast) of the same molecule?
Answer: 6.36 µM

Question: What about the GI50 (SK-OV-3 ovarian) of the same molecule?
Answer: 21.6 µM

Question: And the TGI (SK-OV-3 ovarian)?
Answer: 55.8 µM

Question: And the GI50 (U251 CNS)?
Answer: 6.42 µM

Question: What about the TGI (U251 CNS) of the same molecule?
Answer: 19.6 µM

Question: And the GI50 (NCI/ADR-RES ovarian)?
Answer: > 100 µM

Question: And the TGI (NCI/ADR-RES ovarian)?
Answer: > 100 µM

Question: What about the GI50 (UACC-257 melanoma) of the same molecule?
Answer: 20.1 µM

Question: What about the TGI (UACC-257 melanoma) of the same molecule?
Answer: > 100 µM

Question: What about the GI50 (SN12C renal) of the same molecule?
Answer: 4.74 µM

Question: And the TGI (SN12C renal)?
Answer: 23.9 µM

Question: And the GI50 (UO-31 renal)?
Answer: > 100 µM

Question: What about the TGI (UO-31 renal) of the same molecule?
Answer: > 100 µM

Question: And the GI50 (NCI-H23 lung)?
Answer: 5.79 µM

Question: What about the TGI (NCI-H23 lung) of the same molecule?
Answer: 18.3 µM

Question: What about the GI50 (SNB-75 CNS) of the same molecule?
Answer: 4.82 µM

Question: And the TGI (SNB-75 CNS)?
Answer: 24.2 µM

Question: What about the GI50 (NCI-H522 lung) of the same molecule?
Answer: 2.4 µM

Question: What about the TGI (NCI-H522 lung) of the same molecule?
Answer: 8.03 µM

Question: And the GI50 (HCC-2998 colon)?
Answer: 6.18 µM

Question: What about the TGI (HCC-2998 colon) of the same molecule?
Answer: > 100 µM

Question: And the GI50 (IGROV1 ovarian)?
Answer: 13.6 µM

Question: What about the TGI (IGROV1 ovarian) of the same molecule?
Answer: 30.7 µM

Question: What about the GI50 (SF-268 CNS) of the same molecule?
Answer: 4.81 µM

Question: What about the TGI (SF-268 CNS) of the same molecule?
Answer: 18.7 µM

Question: What about the GI50 (UACC-62 melanoma) of the same molecule?
Answer: 6.99 µM

Question: What about the TGI (UACC-62 melanoma) of the same molecule?
Answer: 26.6 µM

Question: What about the GI50 (ACHN renal) of the same molecule?
Answer: 26.8 µM

Question: What about the TGI (ACHN renal) of the same molecule?
Answer: > 100 µM

Question: What about the GI50 (SF-295 CNS) of the same molecule?
Answer: 16.5 µM

Question: And the TGI (SF-295 CNS)?
Answer: 34 µM

Question: And the GI50 (HT29 colon)?
Answer: 6.81 µM

Question: And the TGI (HT29 colon)?
Answer: > 100 µM

Question: And the GI50 (HCT-15 colon)?
Answer: > 100 µM

Question: And the TGI (HCT-15 colon)?
Answer: > 100 µM

Question: What about the GI50 (BT-549 breast) of the same molecule?
Answer: 14.2 µM

Question: And the TGI (BT-549 breast)?
Answer: 29.8 µM

Question: And the GI50 (A498 renal)?
Answer: 21.1 µM

Question: And the TGI (A498 renal)?
Answer: 43.2 µM

Question: What about the GI50 (PC-3 prostate) of the same molecule?
Answer: 6.59 µM

Question: What about the TGI (PC-3 prostate) of the same molecule?
Answer: > 100 µM

Question: And the GI50 (786-0 renal)?
Answer: 15.6 µM

Question: And the TGI (786-0 renal)?
Answer: 34.6 µM

Question: What about the GI50 (MDA-MB-231 breast) of the same molecule?
Answer: 2.84 µM

Question: What about the TGI (MDA-MB-231 breast) of the same molecule?
Answer: 9.44 µM

Question: And the GI50 (HS 578T breast)?
Answer: 2.96 µM

Question: What about the TGI (HS 578T breast) of the same molecule?
Answer: 15.8 µM

Question: And the GI50 (RXF 393 renal)?
Answer: 5.69 µM

Question: What about the TGI (RXF 393 renal) of the same molecule?
Answer: 26.8 µM

Question: And the GI50 (A549 NSCLC)?
Answer: > 100 µM

Question: What about the TGI (A549 NSCLC) of the same molecule?
Answer: > 100 µM

Question: And the GI50 (HCT-116 colon)?
Answer: 3.65 µM

Question: What about the TGI (HCT-116 colon) of the same molecule?
Answer: 13.6 µM

Question: What about the GI50 (K-562 leukemia) of the same molecule?
Answer: 8.47 µM

Question: And the TGI (K-562 leukemia)?
Answer: > 100 µM

Question: And the GI50 (HL-60(TB) leukemia)?
Answer: > 100 µM

Question: What about the TGI (HL-60(TB) leukemia) of the same molecule?
Answer: > 100 µM

Question: What about the GI50 (M14 melanoma) of the same molecule?
Answer: 5.83 µM

Question: And the TGI (M14 melanoma)?
Answer: > 100 µM

Question: What about the GI50 (EKVX NSCLC) of the same molecule?
Answer: 22.3 µM

Question: What about the TGI (EKVX NSCLC) of the same molecule?
Answer: > 100 µM

Question: What about the GI50 (CAKI-1 renal) of the same molecule?
Answer: 69.7 µM

Question: And the TGI (CAKI-1 renal)?
Answer: > 100 µM

Question: And the GI50 (OVCAR-3 ovarian)?
Answer: 2.25 µM

Question: And the TGI (OVCAR-3 ovarian)?
Answer: 6.58 µM

Question: And the GI50 (OVCAR-4 ovarian)?
Answer: 3.95 µM

Question: What about the TGI (OVCAR-4 ovarian) of the same molecule?
Answer: 24.8 µM

Question: What about the GI50 (TK-10 renal) of the same molecule?
Answer: 23.7 µM

Question: And the TGI (TK-10 renal)?
Answer: 59.7 µM

Question: And the GI50 (COLO 205 colon)?
Answer: 5.21 µM

Question: And the TGI (COLO 205 colon)?
Answer: > 100 µM

Question: What about the GI50 (SR leukemia) of the same molecule?
Answer: 18 µM

Question: What about the TGI (SR leukemia) of the same molecule?
Answer: > 100 µM

Question: What about the GI50 (MDA-MB-468 breast) of the same molecule?
Answer: 1.98 µM

Question: What about the TGI (MDA-MB-468 breast) of the same molecule?
Answer: 4.82 µM
